Measured values: US11312722B2, “Hsp90 inhibitors and uses thereof” (TRUSTEES OF BOSTON UNIVERSITY, priority 2019, dated 2022)

Assays:
[1] = target: Hsp90 (C. neoformans whole cell lysate) (Cryptococcus neoformans, UniProt J9VVA4); type: binding; conditions: for C. neo Active (biochemical): Yes/No call; for EC50: read-out: C. neo EC50
Procedure: (§1) All analogs were assessed for Hsp90 binding affinity using a fluorescence polarization (FP)-based equilibrium competition assay in fungal and human whole cell lysates. […] Using lysates, the relative potency and selectivity for fungal Hsp90 was measured versus the entire ensemble of human Hsp90 isoforms in microplate format using small amounts of test materials. […] Thermal shift assays were performed under saturating ligand conditions, i.e. equimolar concentrations (10 μM) of protein and ligand. As a result, they provided qualitative evidence of target binding, but not a quantitative measurement of ligand affinity. For quantitation, a ligand dissociation constant (Ki) for key compounds was also determined using purified NBDs in FP assays and KD measurements were made by surface plasmon resonance (SPR) using a Biacore instrument. Finally, all analogs were assessed for whole cell antifungal activity against the pathogens C. albicans and C. neoformans.
(§2) FP assays. Whole cell lysates were prepared for FP assays as described previously. Total protein concentration of human and yeast lysates was determined by Bradford assay. […] Serial dilutions of test Hsp90 inhibitors were then assayed under these same conditions to monitor loss of fluorescence polarization as an indicator of probe displacement from Hsp90. […] Titrations of test compound in 25 μL of binding buffer (supplemented with 0.1 mg/mL bovine gamma globulin), were mixed with an equal volume of freshly prepared whole-cell lysate spiked with Cy3-GdA (0.1 nM). Plates were incubated at room temperature for 4.5 h to achieve equilibrium binding for the geldanamycin-based probe. […] Non-linear 4-parameter curve fitting of raw displacement data was performed in GraphPad Prism 5.0 to determine EC50 values as a measure of relative Hsp90-binding affinity. Results were normalized to the value determined for GdA in lysate of each cell type.
(§3) Statistical methods. […] In calculating the error of selectivity determinations, the fractional error of measurements in each species was summed to yield a composite error for the derived ratio.

[2] = system: Hsp90 (C. neoformans whole cell lysate); type: binding; conditions: Yes/No call
Procedure: as §1, §2, §3

[3] = target: Hsp90 (C. albicans whole cell lysate) (Candida albicans (strain SC5314 / ATCC MYA-2876) (Yeast), UniProt P46598); assay: biochemical; type: binding; conditions: for C. alb Active (biochemical): Yes/No call; for EC50: read-out: C. alb EC50
Summary of the method: (§4)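 In this fluorescence polarization competition assay, compound titrations in buffer with 0.1 mg/mL bovine gamma globulin were mixed with fungal whole-cell lysate spiked with 0.1 nM Cy3-geldanamycin probe. Plates were incubated 4.5 h at room temperature. EC50 came from 4-parameter fits of probe displacement, normalized to GdA in the same lysate.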

[4] = system: Hsp90 (C. albicans whole cell lysate); assay: biochemical; type: binding; conditions: for C. alb Selective: Yes/No call
Summary of the method: as §4

[5] = target: T1, C. neoformans Hsp90 NBD (Cryptococcus neoformans, UniProt J9VVA4); assay: FP assay with purified C. neoformans Hsp90 NBD (Ki); type: binding; conditions: for C. neo Selectivity (FS): C. neo FS calculated using Ki
T1 sequence (J9VVA4 1-699): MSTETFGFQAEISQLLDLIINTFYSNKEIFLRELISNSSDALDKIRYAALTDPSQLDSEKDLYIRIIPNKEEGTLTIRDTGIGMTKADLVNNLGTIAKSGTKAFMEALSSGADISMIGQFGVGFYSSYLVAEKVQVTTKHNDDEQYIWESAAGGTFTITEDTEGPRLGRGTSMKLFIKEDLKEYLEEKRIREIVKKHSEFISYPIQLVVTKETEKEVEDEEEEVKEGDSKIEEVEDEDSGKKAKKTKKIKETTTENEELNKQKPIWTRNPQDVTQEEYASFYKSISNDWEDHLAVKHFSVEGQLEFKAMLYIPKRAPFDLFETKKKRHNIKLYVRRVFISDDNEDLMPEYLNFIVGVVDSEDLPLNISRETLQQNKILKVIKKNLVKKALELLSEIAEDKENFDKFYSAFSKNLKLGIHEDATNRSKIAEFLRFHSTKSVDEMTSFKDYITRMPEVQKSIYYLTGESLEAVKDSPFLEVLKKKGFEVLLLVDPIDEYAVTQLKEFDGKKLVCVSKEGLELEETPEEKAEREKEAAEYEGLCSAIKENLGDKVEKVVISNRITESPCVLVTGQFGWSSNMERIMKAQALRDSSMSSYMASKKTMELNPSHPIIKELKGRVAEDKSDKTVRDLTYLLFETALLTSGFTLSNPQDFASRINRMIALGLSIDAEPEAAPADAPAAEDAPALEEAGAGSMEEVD
Procedure: Thermal shift assays were performed under saturating ligand conditions, i.e. equimolar concentrations (10 μM) of protein and ligand. As a result, they can provide only qualitative evidence of target binding, but not a quantitative measurement of ligand affinity. […] Titrations of the Cy3-GdA probe and purified proteins were evaluated to define assay conditions and to determine the dissociation constant Kd of the probe for each NBD. Serial dilutions of test Hsp90 inhibitors were then assayed in triplicate wells under these conditions. Non-linear 4-parameter curve fitting of raw displacement data was performed in GraphPad Prism 5.0 to determine IC50 values. Finally, inhibitory constants (Ki) were calculated as described previously.
NBD expression and purification. Recombinant Hsp90 NBDs were expressed and purified as previously described. Stock protein solutions in 50% glycerol were stored at −20° C. until dilution into relevant buffers and use for FP and thermal shift assays.

[6] = system: C. neoformans (Strain H99); assay: Antifungal sensitivity testing (MIC), C. neoformans H99; type: cell-based; conditions: for C. neo Active (cells): Yes/No call; for MIC80 / MIC90: Cryptococcus neoformans; for MIC80: read-out: C. neo MIC80; for MIC90: read-out: C. neo MIC90
[7] = target: T1, C. neoformans Hsp90 NBD; assay: Protein thermal shift assay, C. neoformans Hsp90 NBD; type: binding; conditions: equimolar protein and ligand (10 μM)
Procedure: […]. Using recombinant proteins, assay-independent nanomolar inhibitory constants (Ki) were defined for these compounds. Binding of the compounds to their relevant NBD by thermal shift denaturation assays was also confirmed. Thermal shift assays were performed under saturating ligand conditions, i.e. equimolar concentrations (10 μM) of protein and ligand. As a result, they can provide only qualitative evidence of target binding, but not a quantitative measurement of ligand affinity. […] […]. C. neoformans or C. albicans Hsp90 NBD was combined with equimolar concentrations of the indicated bioactive inhibitors (10 μM) or DMSO control, in technical triplicates. The protein was heated from 25 to 98.6° C. at 0.2° C./5 s in the presence of Sypro Orange dye. All compounds induce an increase in melting temperature relative to the DMSO control, reported as ΔTm.
Protein thermal shift assays. Thermal melting curves were determined using a Protein Thermal Shift Kit (ThermoFisher #4462263), employing a CFX384 Real-Time PCR System (Bio-Rad, C1000 Touch Thermal Cycler). Reactions were performed in a final volume of 10 μL, and contained purified C. albicans or C. neoformans Hsp90 NBD diluted to 250 μg/mL in Buffer HBS-P (GE Healthcare Life Sciences, 0.01 M HEPES pH 7.4, 0.15 M NaCl, 0.005% v/v Surfactant P20) with 10 μM synthetic analog or DMSO control, and 1× Sypro Orange dye solution. Samples were prepared in triplicate in 384-well white plates (Bio-Rad; HSP3805). The instrument was set to melt curve, step 1 (25° C., 2 min) and step 2 (ramp to 98.6° C., increasing 0.2° C. per 5 s cycle). The inflection point of each curve is defined as the protein melting temperature (Tm). Temperature shift, ΔTm, was recorded as the difference between the Tm of the fungal Hsp90 NBD with compound minus Tm of the protein without compound.

[8] = system: C. albicans clinical isolate (CaCi2); assay: Fungicidal activity: spotting of MIC cultures onto compound-free YPD agar; type: cell-based; conditions: C. albicans CaCi2, spotted on YPD agar after 48 h exposure
Procedure: Color scale bar: no growth inhibition (green) to complete inhibition (black). Each shaded box represents the mean of technical duplicates. The experiment was repeated as an independent biological replicate to confirm results.
Each shaded box represents the mean of technical duplicates. Relative viable cell number was monitored by standard dye reduction assay after 3-hr incubation with resazurin at 37° C. FIG. 6B: Following exposure to compounds, aliquots of the culture in each well were spotted onto compound-free YPD agar and plates incubated at 30° C. for an additional 24 hours before imaging to assess viability. The entire experiment consisting of growth in liquid culture followed by spotting onto YPD agar was repeated once.
Antifungal sensitivity testing. […] Each compound was tested in duplicate in at least two independent experiments. […] Plates were photographed after 24 h of incubation at 30° C.

[9] = target: T1, C. neoformans Hsp90 NBD; assay: biochemical; type: binding; conditions: SPR, 25° C., read-out: Biacore KD
Procedure: SPR assays. For SPR experiments, Hsp90 NBD expression constructs were modified to encode a C-terminal AviTag™ for site-specific on-column biotinylation with a BirA biotin-ligase kit (Avidity LLC; BirA-500). SPR experiments were performed on a Biacore T200 instrument at 25° C. Biotinylated Hsp90 NBD was diluted to 40 μg/mL and immobilized on a streptavidin chip (Sensor Chip SA, GE Healthcare) at a density of 2000-2500 response units (RU) on the biosensor surface. […] Resulting sensorgrams were analyzed with a fit to a 1:1 binding model, using BIA evaluation software.

[10] = mouse liver microsomes; for % remaining at 15 min (NADPH-free): NADPH-free control; for % remaining at 15 min / % remaining at 60 min: with NADPH
[11] = in vitro; conditions: both, CD-1, mouse; for CLint scaled at 1 μM: liver microsomes

Sequence of Hsp90 (C. neoformans whole cell lysate) (Cryptococcus neoformans, UniProt J9VVA4) (J9VVA4 1-699): as above

SMILES | EC50 [1] [nM] | C. alb Active (biochemical) [3] | EC50 [3] [nM] | C. alb Selectivity (FS) [4] | C. alb Selective [4] | C. neo Selectivity (FS) [5] | C. neo MIC80 [6] [µM] | C. neo MIC90 [6] [µM] | other results
COc1ccccc1-c1cc(Nc2cc(O)cc(O)c2C(=O)N2CC[C@H](NC(C)=O)C2)n(C)n1 [ACSM01348] | 620 | Yes | 2250 | >5 | Yes | 107.7 | >25 | >25 | C. neo Active (biochemical) [1]: Yes; C. neo selective [2]: Yes; C. neo Active (cells) [6]: No
COc1ccccc1-c1cc(Nc2cc(O)cc(O)c2C(=O)N2CC[C@H](NC(C)=O)C2)n(C)n1 [ACSM01349] | 246 | Yes | 1210 | 9.5 | Yes | 159.7 | >25 | >25 | C. neo Active (biochemical) [1]: Yes; C. neo selective [2]: Yes; C. neo Active (cells) [6]: No
COc1ccccc1-c1cc(Nc2cc(O)cc(O)c2C(=O)N2CC[C@@H](OC)C2)n(C)n1 [ACSM01350] | 106 | Yes | 233 | 9.2 | Yes | 259.7 | >25 | >25 | C. neo Active (biochemical) [1]: Yes; C. neo selective [2]: Yes; C. neo Active (cells) [6]: No
COc1ccccc1-c1cc(Nc2cc(O)cc(O)c2C(=O)N2CC[C@H](OC)C2)n(C)n1 [ACSM01351] | 244 | Yes | 628 | 4.6 | No | 98 | >25 | >25 | 
Cn1nc(-c2ccccc2)cc1Nc1cc(O)cc(O)c1C(=O)N1Cc2ccncc2C1 [BUCMD00467] | 151 | Yes | 1040 | 0.4 | No | 57.3 | >25 | >25 | 
COc1ccc(Cn2nc(-c3ccccc3)cc2Nc2cc(O)cc(O)c2C(=O)N2Cc3ccccc3C2)cc1 [Compound 21, 4-(2,3-dihydro-1H-isoindole-2-carbonyl)-5-((1-((4-methoxyphenyl)methyl)-3-phenyl-1H-pyrazol-5-yl)amino)benzene-1,3-diol] |  |  |  |  |  |  |  |  | C. neoformans NBD ΔTm [7]: 14 °C; fungicidal activity in combination with fluconazole [8]: fungicidal activity in combination with fluconazole
COc1ccc(Cn2ncc(C)c2Nc2cc(O)cc(O)c2C(=O)N2Cc3ccccc3C2)cc1 [Compound 41, 4-(2,3-Dihydro-1H-isoindole-2-carbonyl)-5-((1-((4-methoxyphenyl)methyl)-4-methyl-1H-pyrazol-5-yl)amino)benzene-1,3-diol] |  |  |  |  |  |  |  |  | fungicidal activity in combination with fluconazole [8]: fungicidal activity in combination with fluconazole
Cc1cc(Nc2cc(O)cc(O)c2C(=O)N2Cc3ccccc3C2)n(Cc2ccccc2Cl)n1 [Compound 89, 5-((1-((2-Chlorophenyl)methyl)-3-methyl-1H-pyrazol-5-yl)amino)-4-(2,3-dihydro-1H-isoindole-2-carbonyl)benzene-1,3-diol] |  |  |  |  |  |  |  |  | C. neoformans NBD ΔTm [7]: 12 °C; fungicidal activity in combination with fluconazole [8]: fungicidal activity in combination with fluconazole
COc1cccc(-c2cc(Nc3cc(O)cc(O)c3C(=O)N3Cc4cccnc4C3)n(C)n2)c1 [Compound 113, 5-((3-(3-Methoxyphenyl)-1-methyl-1H-pyrazol-5-yl)amino)-4-(5H,6H,7H-pyrrolo[3,4-b]pyridine-6-carbonyl)benzene-1,3-diol] |  | Yes |  |  |  |  |  |  | Kd [9]: 67 nM; MIC80 [6]: > 25 µM; MIC90 [6]: > 25 µM; % remaining at 15 min (NADPH-free) [10]: 109.2%; % remaining at 15 min [10]: 4.9%; % remaining at 60 min [10]: 0%; CLint scaled at 1 μM [11]: 1590 mL/min/kg; half-life ([11]; microsomes): 3.4 min
COc1cccc(-c2cc(Nc3cc(O)cc(O)c3C(=O)N3Cc4cn[nH]c4C3)n(C)n2)c1 [Compound 114, 5-((3-(3-Methoxyphenyl)-1-methyl-1H-pyrazol-5-yl)amino)-4-(1H,4H,5H,6H-pyrrolo[3,4-c]pyrazole-5-carbonyl)benzene-1,3-diol] |  | Yes |  |  |  |  |  |  | Kd [9]: 22 nM; MIC80 [6]: > 25 µM; MIC90 [6]: > 25 µM; % remaining at 15 min (NADPH-free) [10]: 108.2%; % remaining at 15 min [10]: 40.1%; % remaining at 60 min [10]: 7.0%; CLint scaled at 1 μM [11]: 318 mL/min/kg
Cn1nc(-c2ccc(C(F)(F)F)cc2)cc1Nc1cc(O)cc(O)c1C(=O)N1Cc2ccccc2C1 [Compound 124, 4-(2,3-Dihydro-1H-isoindole-2-carbonyl)-5-((1-methyl-3-(4-(trifluoromethyl)phenyl)-1H-pyrazol-5-yl)amino)benzene-1,3-diol] |  |  |  |  |  |  |  |  | Ki ([5]; FP, purified recombinant NBD): 190 nM; C. neoformans NBD ΔTm [7]: 1 °C
